Data published in US4304778A, “4-Aminoquinazoline derivatives having fungicidal, anti-insect and acaricidal properties” (Sankyo Company Limited, priority 1978, dated 1981).

Legend:
Phytophthora infestans = format: in vivo; conditions: tomato late blight; 500 ppm; after 5 days; average per leaf
Alternalia solani = test: Effect on early blight in tomatoes; format: in vivo; conditions: tomato early blight; 500 ppm; 3 days in greenhouse
Experimental: (§1) In the following Examples, wettable powders prepared according to the procedures of Example 4 were used, each powder containing 50% by weight of the active compound of this invention.
Groups of tomato plants (variety Shinfukuju) were planted, two per pot, in a series of Wagner pots (diameter 12 cm) and used for the following test when at the 5 to 6 leaf stage. Each pot was treated with 30 ml of an aqueous suspension containing 500 ppm of one of the active compounds shown in Table 3, applied to the plants by spraying over their stems and leaves. After air-drying the plants, a spore suspension of the pathogenic microorganism Alternalia solani was sprayed over each plant, and the plants were kept in a wet room for 24 hours at 20°-22° C. and 100% relative humidity. The pots were then placed in a greenhouse for 3 days. All leaves were then examined for signs of the disease and the number of disease spots per leaf was calculated, using three pots for each compound.

[1] = system: Colletotrichum lagenarium; test: Effect on anthracnose in cucumbers; format: in vivo; conditions: cucumber anthracnose; 500 ppm; seven days; cotyledon and first leaf
Experimental: as §1
Groups of cucumber plants (variety Sagamihanshiro) were planted, two per pot, in a series of Wagner pots (diameter 12 cm) and were used as host plants when the first leaf was fully grown and open. Each test group of three pots was treated with one of the active compounds shown in Table 4 by spraying an aqueous suspension containing 500 ppm of the active compound onto the plants at the rate of 30 ml per 3 pots. After air-drying the plants, a spore suspension of the pathogenic microorganism Colletotrichum lagenarium was sprayed onto the plants and the plants were kept in a wet room for 24 hours at 20°-22° C. and 100% relative humidity. The pots were then placed in a greenhouse at 26° C. and, seven days after the spore suspension had been sprayed on, the percentage diseased area of the cotyledon and the first leaf was calculated.

Sphaerotheca fuliginea = test: Effect on powdery mildew in cucumbers; format: in vivo; conditions: cucumber powdery mildew; 500 ppm; 10 days
Experimental: as §1
Cucumber seedlings (variety Sagamihanshiro), planted two per 12 cm diameter pot, were used as host plants at the stage when the first leaf was fully grown and open. Each test group of three pots was treated with one of the active compounds shown in Table 5 by spraying an aqueous suspension containing 500 ppm of the active compound onto the plants at the rate of 20 ml per 3 pots. After air-drying the plants, the host plants were inoculated with the microorganism Sphaerotheca fuliginea by brushing already infected cucumber leaves with a small brush and letting the microorganism fall onto the host plants. The inoculated plants were kept in a greenhouse at 24°-26° C. for 10 days. At the end of this time, the percentage diseased area was measured.

guppies = test: Toxicity to guppies; format: in vivo; conditions: LC50 after 48 hours classified
Experimental: In this example the toxicity of the compounds of the invention towards guppies was estimated and is compared with that of corresponding compounds as disclosed and claimed in our co-pending U.S. Application No. 910,117 filed May 30, 1978. The LC50 was determined after 48 hours and the toxicity to guppies was classified into the rankings (i), (ii) and (iii) according to the following classification scheme: […]

cockroach larvae = conditions: 24 hours; 25° C.
Piricularia oryzae = format: in vivo; conditions: rice blast; 500 ppm spray; mean, upper two leaves
[2] = system: third instar larvae of the tobacco cutworm; test: Repellent action against the third instar larvae of the tobacco cutworm; format: in vivo; parameters: key: -: no ingestion; ±: very little ingestion; +: some ingestion; ++: considerable ingestion; conditions: cabbage leaves dipped in 500 ppm, 72 hours
Excerpt: as §1
Cabbage leaves were dipped for 30 seconds in an aqueous suspension containing 500 ppm of one of the active compounds shown in Table 6. After air-drying, each leaf was placed into a plastic receptacle having a diameter of 8 cm and the third instar larvae (10 per receptacle) of the tobacco cutworm were released onto the leaves. After 72 hours, the extent of ingestion of the leaves was measured, using two receptacles for each test compound. The results are shown in Table 6, using the following notation (which is also employed, with the same meaning, in following Table 9): […]

[3] = system: final instar larvae of the diamondback moth (Plutella xylostella); test: Repellent and emergence-inhibition effect on the final instar larvae of diamondback moths; format: in vivo; parameters: key to Extent of ingestion: -: no ingestion; ±: very little ingestion; +: some ingestion; ++: considerable ingestion; conditions: 72 hours; for pest or weed control at 500 ppm: Plutella xylostella, read-out: Emergence-inhibition rate (%); for Extent of ingestion: radish leaves dipped in 500 ppm
Excerpt: as §1
Leaves of the Japanese radish (Raphanus sativus) were dipped for 30 seconds into a liquid containing 500 ppm of one of the compounds shown in Table 9. After air-drying the leaves, each leaf was placed into a plastic icecream cup (diameter 8 cm) and 15 final instar larvae of the diamondback moth (Plutella xylostella) were placed into each cup. Each test was conducted in duplicate and the results were averaged.

| Compound | Diseased area (%) (Phytophthora infestans) | No. of disease spots per leaf (Alternalia solani) | Diseased area (%) [1] | Diseased area (%) (Sphaerotheca fuliginea) | Toxicity ranking (guppies) | Mortality rate (%), 0.5mg test cpd/10 cockroaches/bottle (cockroach larvae) | Mortality rate (%), 1mg test cpd/10 cockroaches/bottle (cockroach larvae) | No. of disease spots per leaf (Piricularia oryzae) | Extent of ingestion [2] | pest or weed control at 500 ppm [3] | Extent of ingestion [3] |
| --- | --- | --- | --- | --- | --- | --- | --- | --- | --- | --- | --- |
| Cc1ccccc1OCCN(C)c1ncnc2ccccc12 [Compound No. 1, 4-{N-methyl-N-[2-(2-methylphenoxy)ethyl]amino}-quinazoline] | 0% | 8 spots per leaf | 0% | 0% | ii (all fish dead at 10 ppm but alive at 0.5 ppm) |  |  |  |  |  |  |
| CCN(CCOc1ccccc1C)c1ncnc2ccccc12 [Compound No. 2, 4-{N-ethyl-N-[2-(2-methylphenoxy)ethyl]amino}quinazoline] | 3% | 16 spots per leaf | 0% | 0% | ii (all fish dead at 10 ppm but alive at 0.5 ppm) | 90% | 100% |  |  |  |  |
| Cc1ccccc1OCCN(c1ncnc2ccccc12)C1CCCCC1 [compound 9, 4-{N-cyclohexyl-N-[2-(2-methylphenoxy)ethyl]amino}quinazoline] | 13% | 15 spots per leaf |  |  |  |  |  |  |  |  |  |
| CCCCN(CCOc1ccccc1C)c1ncnc2ccccc12 [compound 10, 4-{N-butyl-N-[2-(2-methylphenoxy)ethyl]amino}quinazoline] |  | 4 spots per leaf |  | 0% |  |  |  |  |  |  |  |
| CN(CCOCc1ccc(Cl)cc1)c1ncnc2ccccc12 [compound 14, 4-{N-[2-(4-chlorobenzyloxy)ethyl]-N-methylamino}quinazoline] |  |  |  |  |  |  |  | 1.5 spots per leaf |  |  |  |
| CN(CCOc1ccc(Cl)cc1)c1ncnc2ccccc12 [compound 19, 4-{N-[2-(4-chlorophenoxy)ethyl]-N-methylamino}quinazoline] |  |  |  |  |  | 85% | 100% |  | + | 80% | ± |
| C=CCN(CCOc1ccccc1C(C)C)c1ncnc2ccccc12 [compound 25, 4-{N-allyl-N-[2-(2-isopropylphenoxy)ethyl]amino}quinazoline] | 0% | 15 spots per leaf | 8% | 0% |  | 85% | 100% |  |  |  |  |
| C=CCN(CCOc1ccc(C)cc1C)c1ncnc2ccccc12 [compound 26, 4-{N-allyl-N-[2-(2,4-dimethylphenoxy)ethyl]amino}quinazoline] | 3% |  | 0% | 0% |  | 90% | 100% |  | ± to + | 80% | ± to + |
| CC(C)c1ccccc1OCCN(c1ncnc2ccccc12)C1CCCCC1 [compound 31, 4-{N-cyclohexyl-N-[2-(2-isopropylphenoxy)ethyl]amino}quinazoline] |  | 13 spots per leaf |  |  |  |  |  |  |  |  |  |
| CCN(CCOc1ccc(C)cc1C)c1ncnc2ccccc12 [compound 32, 4-{N-[2-(2,4-dimethylphenoxy)ethyl]-N-ethylamino}quinazoline] | 5% |  | 8% | 0% |  | 85% | 100% |  |  |  |  |
| Cc1ccc(OCCN(c2ncnc3ccccc23)C(C)C)c(C)c1 [compound 34, 4-{N-[2-(2,4-dimethylphenoxy)ethyl]-N-isopropylamino}quinazoline] | 0% | 15 spots per leaf |  | 10% |  |  |  |  |  |  |  |
| CCN(CCOc1ccc(Cl)cc1C)c1ncnc2ccccc12 [compound 38, 4-{N-[2-(4-chloro-2-methylphenoxy)ethyl]-N-ethylamino}quinazoline] | 13% |  |  | 0% |  | 90% | 100% |  | ± | 100% | - to ± |
| CCCN(CCOc1ccc(Cl)cc1C)c1ncnc2ccccc12 [compound 39, 4-{N-[2-(4-chloro-2-methylphenoxy)ethyl]-N-propylamino}quinazoline] | 9% |  |  | 0% | ii (all fish dead at 10 ppm but alive at 0.5 ppm) | 85% | 100% |  |  |  |  |
| CCCCN(CCOc1ccc(Cl)cc1C)c1ncnc2ccccc12 [compound 41, 4-{N-butyl-N-[2-(4-chloro-2-methylphenoxy)ethyl]amino}quinazoline] |  |  |  |  |  | 85% | 100% |  | ± to + | 90% | ± |
| C=CCN(CCOc1ccc(Cl)cc1C)c1ncnc2ccccc12 [compound 43, 4-{N-allyl-N-[2-(4-chloro-2-methylphenoxy)ethyl]amino}quinazoline] | 11% |  |  | 0% |  | 90% | 100% |  | + | 70% | ± |
| CCCCCCN(CCOc1ccccc1C(C)C)c1ncnc2ccccc12 [compound 44, 4-{N-hexyl-N-[2-(2-isopropylphenoxy)ethyl]amino}quinazoline] |  |  |  |  |  |  |  | 3.1 spots per leaf |  |  |  |
| CCN(CCOc1cc(C(C)C)ccc1C)c1ncnc2ccccc12 [compound 47, 4-{N-ethyl-N-[2-(5-isopropyl-2-methylphenoxy)ethyl]amino}quinazoline] |  |  |  | 0% |  | 85% | 100% |  | ± to + | 90% | ± |
| CC=CCN(CCOc1ccccc1C(C)C)c1ncnc2ccccc12 [compound 51, 4-{N-(2-butenyl)-N-[2-(2-isopropylphenoxy)ethyl]amino}quinazoline] | 0% | 4 spots per leaf | 0% | 0% |  |  |  |  |  |  |  |
| C=C(C)CN(CCOc1ccccc1C(C)C)c1ncnc2ccccc12 [compound 52, 4-{N-[2-(2-isopropylphenoxy)ethyl]-N-(2-methylallyl)amino}quinazoline] | 13% |  | 8% | 0% | i (all fish alive at 10 ppm) |  |  |  |  |  |  |
| CCCCCCc1ccc(OCCN(C)c2ncnc3ccccc23)c(C)c1 [compound 57, 4-{N-[2-(4-hexyl-2-methylphenoxy)ethyl]-N-methylamino}quinazoline] |  |  |  |  |  | 90% | 100% |  | ± | 100% | - to ± |
